Measurements published in patent US8846653B2, “Delta-tocotrienol treatment and prevention of pancreatic cancer” (University of South Florida, priority 2006, dated 2014).

Assays:
Type in all cases: cell-based, human
[1] = tested on: MiaPaCa-2 cells; test: MTT assay of MiaPaCa2 cultures, single 50 μM dose; set-up: rel amt (relative value set to the control): unit not given here; details: MiaPaCa2, 50 μM; for MTT assay result, av-blank: average minus blank; for MTT assay result, av: average of 7 runs
Procedure: MiaPaCa-2, BxPc-3, and HPDE6-C7 cells were cultured as described above, and treated with a single 50 μM dose of vehicle (ethanol extracted olive oil), T3 alpha (alpha tocotrienol), T3 beta (beta tocotrienol), T3 gamma (gamma tocotrienol), T3 delta (delta tocotrienol), T alpha (alpha tocopherol), T beta (beta tocopherol), TS (tocopherol succinate), GG (geranylgeraniol), SA (succinic acid). A control culture (vehicle only with no treatment) was grown alongside the treatments for comparison. Cell viability was measured using MTT assay at preselect times of 48 or 120 hours after treatment.

[2] = tested on: BXPC3 cells; test: MTT assay of BXPC3 cultures, single 50 μM dose; set-up: MTT assay result, run 1 / MTT assay result, run 2 / MTT assay result, run 3 / MTT assay result, run 4 / MTT assay result, run 5 / MTT assay result, run 6 / MTT assay result, run 7 / MTT assay result, av (average) / MTT assay result, av-blank / MTT assay result, av: unit not given here; details: BXPC3, 50 μM; for MTT assay result, av-blank: average minus blank; for MTT assay result, av (average) / MTT assay result, av: average of 7 runs
Procedure: BXPC3 cells were cultured in complete […] media containing 10% fetal bovine serum (FBS) and 1% penicillin-streptomycin, and 1% L-glutamine. BxPc-3 pancreatic cancer cells were cultured in complete RPMI media containing 10% fetal bovine serum (FBS), and 1% penicillin-streptomycin, 1% HEPES buffer, 1% sodium pyruvate and 1% L-glutamine HPDE6-C7 cells were cultured in serum-free keratinocyte SFM media. All cells were maintained at 37° C. in a humidified incubator with 5% CO2. The cells were treated with a single 50 μM dose of vehicle (vehicle only, may be a solvent), T3 alpha (alpha tocotrienol), T3 beta (beta tocotrienol), T3 gamma (gamma tocotrienol), T3 delta (delta tocotrienol), T alpha (alpha tocopherol), T beta (beta tocopherol), TS (tocopherol succinate), GG (geranylgeraniol), SA (succinic acid). A control (no treatment) culture was grown alongside the treatments for comparison. Cell viability was measured using MTT assay at preselect times of 48 or 120 hours after treatment.

[3] = tested on: SW1990 pancreatic cancer cells; test: MTS assay of SW1990 cultures, single 50 μM dose; details: SW1990, 50 μM
Procedure: SW1990 pancreatic cancer cells […] were cultured in complete DMEM media containing 10% fetal bovine serum (FBS) and 1% penicillin-streptomycin, and 1% L-glutamine. BxPc-3 pancreatic cancer cells were cultured in complete RPMI media containing 10% fetal bovine serum (FBS), and 1% penicillin-streptomycin, 1% HEPES buffer, 1% sodium pyruvate and 1% L-glutamine. HPDE6-C7 cells were cultured in serum-free keratinocyte SFM media. All cells were maintained at 37° C. in a humidified incubator with 5% CO2. The cells were treated with a single 50 μM dose of vehicle (ethanol extracted olive oil), T3 alpha (alpha tocotrienol), T3 beta (beta tocotrienol), T3 gamma (gamma tocotrienol), T3 delta (delta tocotrienol), T alpha (alpha tocopherol), T beta (beta tocopherol), TS (tocopherol succinate), GG (geranylgeraniol), SA (succinic acid). A control culture (i.e., only vehicle with no treatment) was grown alongside the treatments for comparison. Cell viability was measured using MTS assay at preselect times of 24, 48, or 72 hours after treatment.

SMILES: CC(C)=CCC/C(C)=C/CC/C(C)=C/CC/C(C)=C/CO [GG, geranylgeraniol]
- rel amt (relative value set to the control) ([1]; 48 hours): 92
- MTT assay result, av-blank ([1]; 48 hours): 0.285
- MTT assay result, av ([1]; 48 hours): 0.331
- MTT assay result, run 1 ([1]; 48 hours): 0.329
- MTT assay result, run 2 ([1]; 48 hours): 0.339
- MTT assay result, run 3 ([1]; 48 hours): 0.321
- MTT assay result, run 4 ([1]; 48 hours): 0.328
- MTT assay result, run 5 ([1]; 48 hours): 0.342
- MTT assay result, run 6 ([1]; 48 hours): 0.317
- MTT assay result, run 7 ([1]; 48 hours): 0.341
- rel amt (relative value set to the control) ([1]; 120 hours (5 days)): 93
- MTT assay result, av-blank ([1]; 120 hours (5 days)): 1.679
- MTT assay result, av ([1]; 120 hours (5 days)): 1.731
- MTT assay result, run 1 ([1]; 120 hours (5 days)): 1.738
- MTT assay result, run 2 ([1]; 120 hours (5 days)): 1.608
- MTT assay result, run 3 ([1]; 120 hours (5 days)): 1.577
- MTT assay result, run 4 ([1]; 120 hours (5 days)): 1.744
- MTT assay result, run 5 ([1]; 120 hours (5 days)): 2.134
- MTT assay result, run 6 ([1]; 120 hours (5 days)): 1.606
- MTT assay result, run 7 ([1]; 120 hours (5 days)): 1.711
- rel amt (relative value set to the control) ([2]; 48 hours): 108
- MTT assay result, av-blank ([2]; 48 hours): 0.246
- MTT assay result, av (average) ([2]; 48 hours): 0.295
- MTT assay result, run 1 ([2]; 48 hours): 0.308
- MTT assay result, run 2 ([2]; 48 hours): 0.272
- MTT assay result, run 3 ([2]; 48 hours): 0.299
- MTT assay result, run 4 ([2]; 48 hours): 0.291
- MTT assay result, run 5 ([2]; 48 hours): 0.299
- MTT assay result, run 6 ([2]; 48 hours): 0.3
- MTT assay result, run 7 ([2]; 48 hours): 0.294
- rel amt (relative value set to the control) ([2]; 120 hours (5 days)): 106
- MTT assay result, av-blank ([2]; 120 hours (5 days)): 0.610
- MTT assay result, av ([2]; 120 hours (5 days)): 0.665
- MTT assay result, run 1 ([2]; 120 hours (5 days)): 0.621
- MTT assay result, run 2 ([2]; 120 hours (5 days)): 0.655
- MTT assay result, run 3 ([2]; 120 hours (5 days)): 0.672
- MTT assay result, run 4 ([2]; 120 hours (5 days)): 0.663
- MTT assay result, run 5 ([2]; 120 hours (5 days)): 0.657
- MTT assay result, run 6 ([2]; 120 hours (5 days)): 0.724
- MTT assay result, run 7 ([2]; 120 hours (5 days)): 0.66
- rel amnt (relative value set to the control) ([3]; 24 hours): 92
- MTS assay result, run 1 ([3]; 24 hours): 0.158
- MTS assay result, run 2 ([3]; 24 hours): 0.133
- MTS assay result, run 3 ([3]; 24 hours): 0.133
- MTS assay result, run 4 ([3]; 24 hours): 0.137
- MTS assay result, run 5 ([3]; 24 hours): 0.131
- MTS assay result, run 6 ([3]; 24 hours): 0.14
- MTS assay result, run 7 ([3]; 24 hours): 0.132
- MTS assay result, run 8 ([3]; 24 hours): 0.121
- MTS assay result, run 9 ([3]; 24 hours): 0.136
- rel amnt (relative value set to the control) ([3]; 48 hours): 83
- MTS assay result, run 1 ([3]; 48 hours): 0.078
- MTS assay result, run 2 ([3]; 48 hours): 0.129
- MTS assay result, run 3 ([3]; 48 hours): 0.13
- MTS assay result, run 4 ([3]; 48 hours): 0.128
- MTS assay result, run 5 ([3]; 48 hours): 0.133
- MTS assay result, run 6 ([3]; 48 hours): 0.118
- MTS assay result, run 7 ([3]; 48 hours): 0.14
- MTS assay result, run 8 ([3]; 48 hours): 0.144
- MTS assay result, run 9 ([3]; 48 hours): 0.125
- rel amnt (relative value set to the control) ([3]; 72 hours): 158
- MTS assay result, run 1 ([3]; 72 hours): 0.784
- MTS assay result, run 2 ([3]; 72 hours): 0.713
- MTS assay result, run 3 ([3]; 72 hours): 0.76
- MTS assay result, run 4 ([3]; 72 hours): 0.734
- MTS assay result, run 5 ([3]; 72 hours): 0.682
- MTS assay result, run 6 ([3]; 72 hours): 0.665
- MTS assay result, run 7 ([3]; 72 hours): 0.65
- MTS assay result, run 8 ([3]; 72 hours): 0.627
- MTS assay result, run 9 ([3]; 72 hours): 0.702

SMILES: O=C(O)CCC(=O)O [SA, succinic acid]
- rel amt (relative value set to the control) ([1]; 48 hours): 74
- MTT assay result, av-blank ([1]; 48 hours): 0.228
- MTT assay result, av ([1]; 48 hours): 0.274
- MTT assay result, run 1 ([1]; 48 hours): 0.276
- MTT assay result, run 2 ([1]; 48 hours): 0.269
- MTT assay result, run 3 ([1]; 48 hours): 0.268
- MTT assay result, run 4 ([1]; 48 hours): 0.276
- MTT assay result, run 5 ([1]; 48 hours): 0.3
- MTT assay result, run 6 ([1]; 48 hours): 0.262
- MTT assay result, run 7 ([1]; 48 hours): 0.266
- rel amt (relative value set to the control) ([1]; 120 hours (5 days)): 80
- MTT assay result, av-blank ([1]; 120 hours (5 days)): 1.443
- MTT assay result, av ([1]; 120 hours (5 days)): 1.495
- MTT assay result, run 1 ([1]; 120 hours (5 days)): 1.36
- MTT assay result, run 2 ([1]; 120 hours (5 days)): 1.346
- MTT assay result, run 3 ([1]; 120 hours (5 days)): 1.488
- MTT assay result, run 4 ([1]; 120 hours (5 days)): 1.609
- MTT assay result, run 5 ([1]; 120 hours (5 days)): 1.84
- MTT assay result, run 6 ([1]; 120 hours (5 days)): 1.412
- MTT assay result, run 7 ([1]; 120 hours (5 days)): 1.408
- rel amt (relative value set to the control) ([2]; 48 hours): 95
- MTT assay result, av-blank ([2]; 48 hours): 0.218
- MTT assay result, av (average) ([2]; 48 hours): 0.267
- MTT assay result, run 1 ([2]; 48 hours): 0.273
- MTT assay result, run 2 ([2]; 48 hours): 0.28
- MTT assay result, run 3 ([2]; 48 hours): 0.271
- MTT assay result, run 4 ([2]; 48 hours): 0.271
- MTT assay result, run 5 ([2]; 48 hours): 0.254
- MTT assay result, run 6 ([2]; 48 hours): 0.263
- MTT assay result, run 7 ([2]; 48 hours): 0.255
- rel amt (relative value set to the control) ([2]; 120 hours (5 days)): 74
- MTT assay result, av-blank ([2]; 120 hours (5 days)): 0.428
- MTT assay result, av ([2]; 120 hours (5 days)): 0.483
- MTT assay result, run 1 ([2]; 120 hours (5 days)): 0.456
- MTT assay result, run 2 ([2]; 120 hours (5 days)): 0.471
- MTT assay result, run 3 ([2]; 120 hours (5 days)): 0.497
- MTT assay result, run 4 ([2]; 120 hours (5 days)): 0.487
- MTT assay result, run 5 ([2]; 120 hours (5 days)): 0.493
- MTT assay result, run 6 ([2]; 120 hours (5 days)): 0.48
- MTT assay result, run 7 ([2]; 120 hours (5 days)): 0.494
- rel amnt (relative value set to the control) ([3]; 24 hours): 109
- MTS assay result, run 1 ([3]; 24 hours): 0.146
- MTS assay result, run 2 ([3]; 24 hours): 0.154
- MTS assay result, run 3 ([3]; 24 hours): 0.15
- MTS assay result, run 4 ([3]; 24 hours): 0.152
- MTS assay result, run 5 ([3]; 24 hours): 0.172
- MTS assay result, run 6 ([3]; 24 hours): 0.165
- MTS assay result, run 7 ([3]; 24 hours): 0.179
- MTS assay result, run 8 ([3]; 24 hours): 0.165
- MTS assay result, run 9 ([3]; 24 hours): 0.160
- rel amnt (relative value set to the control) ([3]; 48 hours): 105
- MTS assay result, run 1 ([3]; 48 hours): 0.122
- MTS assay result, run 2 ([3]; 48 hours): 0.149
- MTS assay result, run 3 ([3]; 48 hours): 0.17
- MTS assay result, run 4 ([3]; 48 hours): 0.138
- MTS assay result, run 5 ([3]; 48 hours): 0.177
- MTS assay result, run 6 ([3]; 48 hours): 0.159
- MTS assay result, run 7 ([3]; 48 hours): 0.18
- MTS assay result, run 8 ([3]; 48 hours): 0.178
- MTS assay result, run 9 ([3]; 48 hours): 0.159
- rel amnt (relative value set to the control) ([3]; 72 hours): 113
- MTS assay result, run 1 ([3]; 72 hours): 0.596
- MTS assay result, run 2 ([3]; 72 hours): 0.547
- MTS assay result, run 3 ([3]; 72 hours): 0.57
- MTS assay result, run 4 ([3]; 72 hours): 0.515
- MTS assay result, run 5 ([3]; 72 hours): 0.544
- MTS assay result, run 6 ([3]; 72 hours): 0.44
- MTS assay result, run 7 ([3]; 72 hours): 0.4
- MTS assay result, run 8 ([3]; 72 hours): 0.427
- MTS assay result, run 9 ([3]; 72 hours): 0.504
